Measurements: PMC9757636, “The effectiveness of newly synthesized quaternary ammonium salts differing in chain length and type of counterion against priority human pathogens” (Scientific Reports, 2022)
Where two headings read alike, the source gives them in different places.

What was measured:
[1] = system: Salmonella typhimurium TA98; assay: Mutagenicity (Ames test); assay type: cell-based; conditions: for Number of colonies: ± SD
Procedure: (§1) Two reference strains of Salmonella Typhimurium TA98 and Salmonella Typhimurium TA100, deficient in histidine synthesis, were used for this study according to the method proposed by Ames et al. with modifications. […] The mixture was mixed and poured onto a Davis minimal medium plate. The mixture without the test compound was used as a negative control. The positive control was a mixture of bacterial culture, biotin-histidine solution, and sodium azide (at a concentration of 15 μg/mL for strain TA100) or acriflavine (at a concentration of 100 μg/mL for strain TA98). Plates were incubated for 48 h at 37 °C, and then colonies were counted. The mutagenicity ratio (MR), the ratio of the number of revertants grown in the presence of the test compound to the number of spontaneously occurring revertants (negative control), was calculated. A mutagenic ratio equal to or greater than 1.7 indicates the mutagenic potential of the tested compounds. The study was performed in three times.

[2] = system: Salmonella typhimurium TA100; assay: Mutagenicity (Ames test); assay type: cell-based; conditions: for Number of colonies: ± SD
Procedure: as §1

[3] = Critical micelle concentration by conductometric measurements; assay type: physicochemical; conditions: aqueous solution, 25 °C
Procedure: Values of critical micelle concentrations (CMC) of cationic surfactants were measured conductrometrically. N5721 conductometer (Tel-Eko Projekt sp z o.o., Poland), equipped with N5981 probe, was calibrated using 0.1 M, 0.01 M and 0.001 M KCl aqueous solutions (conductivities equal to 1.287 S/m, 0.141 S/m and 0.0147 S/m, respectively) and used without temperature compensation mode (constant temperature 25 °C was kept during all calibration procedures and measurements). Values of specific conductivities of at least 15 different concentrations for each surfactant were measured and plotted versus concentration; the discontinuity point was used to determine critical micelle concentration.

S. epidermidis SI8 = assay: MIC/MBC microdilution; assay type: cell-based, Staphylococcus epidermidis; conditions: Staphylococcus epidermidis; for MBC: 99.9% reduction, read-out: Minimal bactericidal concentration (*MBC); for MIC: 24 h, 37 °C, >90% growth inhibition, read-out: Minimal inhibitory concentration (MIC)
Procedure: (§2) The minimum inhibitory concentration (MIC) of the tested monomeric QAS was performed using the microdilution method according to CLSI recommendation (M27-A3). Concentrations from 10 to 1280 µM were analyzed. Strains were incubated with or without compounds (growth control) for 24 h at 37 °C. Three independent replicates were performed. The MIC value was determined spectrophotometrically and the concentration that inhibited more than 90% of growth was determined. Optical density was measured at λ = 590 nm using a 96-well microplate reader (Bio-Rad Universal Hood II).
(§3) To determine the minimum bactericidal concentration (MBC), 10 µL of bacterial suspension incubated with monomeric QAS (MIC concentration and two times higher) was transferred to plates with LB (1% tryptone, 1% yeast extract, 0.5% NaCl) medium. […] The concentration that reduced 99.9% of microbial growth was determined as MBC[54].

[4] = system: S. epidermidis ATCC 35984; assay: MIC/MBC microdilution; assay type: cell-based, Staphylococcus epidermidis; conditions: Staphylococcus epidermidis; for MBC: ATCC35984, 99.9% reduction, read-out: Minimal bactericidal concentration (*MBC); for MIC: ATCC35984, 24 h, 37 °C, >90% growth inhibition, read-out: Minimal inhibitory concentration (MIC)
Procedure: as §2, §3

S. epidermidis B374 [5] = assay: MIC/MBC microdilution; assay type: cell-based, Staphylococcus epidermidis
Procedure: as §2, §3

[6] = system: S. epidermidis ATCC 35984 biofilm; assay: Biofilm eradication; assay type: cell-based, Staphylococcus epidermidis; conditions: 10 µM, 4 h
Procedure: (§4) Biofilm eradication assay was performed according to the method of Christensen et al. with modifications. A standardized bacterial (OD = 0.6) suspension of 100 µL was spotted into a 96-well polystyrene plate. They were incubated for 24 h at 37 °C. Cultures were removed, the plate was washed and then concentrations of QAS ([…]) were added, incubated for 4 h at 37 °C with 100 rpm shaking. The wells were washed with miliQ and fixed at 60 °C for 20 min. The wells were […] with 0.1% crystal violet solution for 5 min. The wells were washed with miliQ until the unfixed dye was completely eluted. The absorbance at λ = 590 nm was measured using a reader (Bio-Rad Universal Hood II). The positive control was an untreated biofilm. Three independent test trials were performed.

[7] = system: S. epidermidis ATCC 35984; assay: Adhesion to stainless steel; assay type: cell-based, Staphylococcus epidermidis; conditions: for adhesion to stainless steel (remaining): 1280 µM
E. coli ATCC 11229 = assay: MIC/MBC microdilution; assay type: cell-based, Escherichia coli; conditions: for MIC: read-out: Minimal inhibitory concentration (MIC); for MBC: read-out: Minimal bactericidal concentration (*MBC)
Procedure: as §2, §3

E. coli H64 = assay: MIC/MBC microdilution; assay type: cell-based, Escherichia coli; conditions: Escherichia coli; for MIC: H64, 24 h, E. coli H64, 24 h, 37 °C, >90% growth inhibition, read-out: Minimal inhibitory concentration (MIC); for MBC: H64, E. coli H64, 99.9% reduction, read-out: Minimal bactericidal concentration (*MBC)
Procedure: as §2, §3

S. aureus ATCC 6538 = assay: MIC/MBC microdilution; assay type: cell-based, Staphylococcus aureus; conditions: for MIC / MBC: Staphylococcus aureus; for MIC: ATCC6538, 24 h, read-out: Minimal inhibitory concentration (MIC); for MBC: ATCC6538, S. aureus ATCC 6538, read-out: Minimal bactericidal concentration (*MBC)
Procedure: as §2, §3

S. aureus MRSA R98 = assay: MIC/MBC microdilution; assay type: cell-based, Staphylococcus aureus; conditions: for MBC / MIC: Staphylococcus aureus, MRSA; for MBC: read-out: Minimal bactericidal concentration (*MBC); for MIC: read-out: Minimal inhibitory concentration (MIC)
Procedure: as §2, §3

P. aeruginosa ATCC 27853 = assay: MIC/MBC microdilution; assay type: cell-based, Pseudomonas aeruginosa; conditions: Pseudomonas aeruginosa; for MIC: ATCC27853, 24 h, P. aeruginosa ATCC 27853, 24 h, 37 °C, >90% growth inhibition, read-out: Minimal inhibitory concentration (MIC); for MBC: ATCC27853, P. aeruginosa ATCC 27853, 99.9% reduction, read-out: Minimal bactericidal concentration (*MBC)
Procedure: as §2, §3

P. aeruginosa PAO1 [8] = assay: MIC/MBC microdilution; assay type: cell-based, Pseudomonas aeruginosa; conditions: Pseudomonas aeruginosa; for MBC: 99.9% reduction, read-out: Minimal bactericidal concentration (*MBC); for MIC: 24 h, 37 °C, >90% growth inhibition, read-out: Minimal inhibitory concentration (MIC)
Procedure: as §2, §3

P. aeruginosa PAO1 [9] = assay: Adhesion to stainless steel; assay type: cell-based, Pseudomonas aeruginosa; conditions: P. aeruginosa PAO1
[10] = system: S. epidermidis B374 biofilm; assay: Biofilm eradication; assay type: cell-based, Staphylococcus epidermidis; conditions: 160 µM, 4 h
Procedure: as §4

S. epidermidis B374 [11] = assay: Adhesion to polystyrene plate; assay type: cell-based, Staphylococcus epidermidis; conditions: 160 µM
Procedure: Adhesion analysis to polystyrene surfaces was determined according to the method of Rodrigues et al. with modifications. Polystyrene 96-well plates were incubated with the respective compound concentrations (10–1280 µM) for 4 h at 37 °C with 100 rpm shaking. The plates were then washed with miliQ and inoculated with 100 µL of bacterial suspension (OD = 0.4–0.6). Plates were incubated for 6 h at 37 °C with 100 rpm shaking. Wells were rinsed and fixed for 20 min at 60 °C. They were then […] with 0.1% crystal violet solution for 5 min. The wells were washed with miliQ until the unfixed dye was completely eluted. The absorbance at λ = 590 nm was measured using a reader (Bio-Rad Universal Hood II). The positive control was a surface not treated with QAS. Three independent trials were performed.

[12] = system: S. epidermidis B374 biofilm; assay: Biofilm-oriented antiseptics test (BOAT); assay type: cell-based, Staphylococcus epidermidis; conditions: 640 µM
Text: Colonies were then counted.

[13] = system: P. aeruginosa PAO1 biofilm; assay: Biofilm eradication; assay type: cell-based, Pseudomonas aeruginosa; conditions: 20 µM, 4 h
Procedure: as §4

[14] = S. aureus ATCC 6538, 24 h, 37 °C, >90% growth inhibition
[15] = 24 h, 37 °C, >90% growth inhibition
[16] = S. epidermidis B374, 99.9% reduction
[17] = S. epidermidis B374, 24 h, 37 °C, >90% growth inhibition
[18] = E. coli ATCC 11229, 99.9% reduction
[19] = E. coli ATCC 11229, 24 h, 37 °C, >90% growth inhibition

## CC(=O)[O-].CCCCCCCCCCCC(=O)N(C)CCC[N+](C)(C)C [AcC12]
[1]; ¼ MIC
  Mutagenicity index: 0.96
  Number of colonies: 22 ± 5.3
[1]; ½ MIC
  Mutagenicity index: 0.91
  Number of colonies: 20.8 ± 4.4
[2]; ¼ MIC
  Mutagenicity index: 0.94
  Number of colonies: 264.7 ± 15
[2]; ½ MIC
  Mutagenicity index: 1.08
  Number of colonies: 304 ± 11.3
[3]
  CMC: 0.018 mol/L
S. epidermidis SI8
  MBC: 640 µM
  MIC: 640 µM
[4]
  MBC: 640 µM
  MIC: 640 µM
S. epidermidis B374 [5]; Staphylococcus epidermidis, B374, 24 h, S. epidermidis B374, 24 h, 37 °C, >90% growth inhibition, read-out: Minimal inhibitory concentration (MIC)
  MIC: 320 µM
S. epidermidis B374 [5]; Staphylococcus epidermidis, B374, S. epidermidis B374, 99.9% reduction, read-out: Minimal bactericidal concentration (*MBC)
  MBC: 320 µM
[6]
  biofilm destruction: approximately 40%
[7]
  adhesion to stainless steel (remaining): 13 to 30%
E. coli ATCC 11229; Escherichia coli, ATCC11229, 24 h, E. coli ATCC 11229, 24 h, 37 °C, >90% growth inhibition
  MIC: 1280 µM
E. coli ATCC 11229; Escherichia coli, ATCC11229, E. coli ATCC 11229, 99.9% reduction
  MBC: 1280 µM
E. coli H64
  MIC: 1280 µM
  MBC: 1280 µM
S. aureus ATCC 6538; [14]
  MIC: 1280 µM
S. aureus ATCC 6538; 99.9% reduction
  MBC: 1280 µM
S. aureus MRSA R98; 99.9% reduction
  MBC: 640 µM
S. aureus MRSA R98; [15]
  MIC: 640 µM
P. aeruginosa ATCC 27853
  MIC: > 1280 µM
  MBC: > 1280 µM
P. aeruginosa PAO1 [8]
  MBC: > 1280 µM
  MIC: > 1280 µM
P. aeruginosa PAO1 [9]; 1280 µM
  adhesion to stainless steel (remaining): 13 to 30%

## CC(=O)[O-].CCCCCCCCCCCCCC(=O)N(C)CCC[N+](C)(C)C [AcC14, [(3-tetradecyilomethylo-amine)propyl] trimethylammonium acetate]
[1]; ¼ MIC
  Mutagenicity index: 0.96
  Number of colonies: 24.5 ± 3.5
[1]; ½ MIC
  Mutagenicity index: 1.01
  Number of colonies: 25.7 ± 4
[2]; ¼ MIC
  Mutagenicity index: 0.97
  Number of colonies: 194 ± 1
[2]; ½ MIC
  Mutagenicity index: 0.95
  Number of colonies: 189 ± 1.4
[3]
  CMC: 0.0054 mol/L
S. epidermidis SI8
  MBC: 160 µM
  MIC: 160 µM
[4]
  MBC: 160 µM
  MIC: 160 µM
S. epidermidis B374 [5]; [16]
  Minimal bactericidal concentration (*MBC): 40 *40 µM
S. epidermidis B374 [5]; [17]
  Minimal inhibitory concentration (MIC): 40 *40 µM
[10]
  biofilm eradication: 70–80%
[7]
  adhesion to stainless steel (remaining): 15%
E. coli ATCC 11229; [18]
  Minimal bactericidal concentration (*MBC): 320 *320 µM
E. coli ATCC 11229; [19]
  Minimal inhibitory concentration (MIC): 320 *320 µM
E. coli H64
  MIC: 160 µM
  MBC: 160 µM
S. aureus ATCC 6538; [14]
  MIC: 160 µM
S. aureus ATCC 6538; 99.9% reduction
  MBC: 160 µM
S. aureus MRSA R98; 99.9% reduction
  MBC: 160 µM
S. aureus MRSA R98; [15]
  MIC: 160 µM
P. aeruginosa ATCC 27853
  MIC: 1280 µM
  MBC: > 1280 µM
P. aeruginosa PAO1 [8]
  MBC: > 1280 µM
  MIC: > 1280 µM

## CC(=O)[O-].CCCCCCCCCCCCCCCC(=O)N(C)CCC[N+](C)(C)C [AcC16]
[1]; ¼ MIC
  Mutagenicity index: 0.93
  Number of colonies: 23.7 ± 4.7
[1]; ½ MIC
  Mutagenicity index: 1.11
  Number of colonies: 28.3 ± 6.4
[2]; ¼ MIC
  Mutagenicity index: 0.54
  Number of colonies: 107.5 ± 2.1
[2]; ½ MIC
  Mutagenicity index: 0.66
  Number of colonies: 132.5 ± 13.4
[3]
  CMC: 0.0016 mol/L
S. epidermidis SI8
  MBC: 10 µM
  MIC: 10 µM
[4]
  MBC: 640 µM
  MIC: 640 µM
S. epidermidis B374 [5]; [16]
  Minimal bactericidal concentration (*MBC): 40 *40 µM
S. epidermidis B374 [5]; [17]
  Minimal inhibitory concentration (MIC): 40 *40 µM
[10]
  biofilm eradication: 70–80%
S. epidermidis B374 [11]
  reduction of adhesion to polystyrene: approximately 44%
[7]; 160 µM
  reduction of adhesion to stainless steel: approximately 93%
E. coli ATCC 11229; [18]
  MBC: 160 µM
E. coli ATCC 11229; [19]
  MIC: 80 µM
E. coli H64
  MIC: 160 µM
  MBC: 320 µM
S. aureus ATCC 6538; S. aureus ATCC 6538, 99.9% reduction
  Minimal bactericidal concentration (*MBC): 80 *80 µM
S. aureus ATCC 6538; [14]
  Minimal inhibitory concentration (MIC): 80 *80 µM
S. aureus MRSA R98; 99.9% reduction
  Minimal bactericidal concentration (*MBC): 10 *10 µM
S. aureus MRSA R98; [15]
  Minimal inhibitory concentration (MIC): 10 *10 µM
[12]; 30 min
  cell survival in biofilm (BOAT): 30%
[12]; 60 min
  cell survival in biofilm (BOAT): 9.5%
[13]
  biofilm eradication: 50–60%
P. aeruginosa ATCC 27853
  MIC: > 1280 µM
  MBC: > 1280 µM
P. aeruginosa PAO1 [8]
  MBC: > 1280 µM
  MIC: > 1280 µM
P. aeruginosa PAO1 [9]; 160 µM
  reduction of adhesion to stainless steel: 58%
